Assay results as given in ChEMBL document CHEMBL1201862, “PubChem BioAssay data set” (2004).
Active and inactive are the calls of the source.

Legend:
[1] = target: Sphingosine 1-phosphate receptor 2 (Homo sapiens, UniProt O95136); assay: Dose Response Cell Based Assay for Agonists of the S1P2 Receptor of Purchased Analogues. [Related pubchem assays: 729, 843, 854, 736 ]; format: functional
[2] = target: 5-hydroxytryptamine receptor 1E (Homo sapiens, UniProt P28566); assay: Counterscreen assay for S1P3 antagonists: Dose response cell-based high throughput screening assay to identify antagonists of the 5-Hydroxytryptamine Receptor Subtype 1E (5HT1E). [Related pubchem assays: 1429, 485 ]; format: functional
[3] = target: Sphingosine 1-phosphate receptor 3 (Homo sapiens, UniProt Q99500); assay: Dose response cell-based high throughput screening assay for antagonists of the Sphingosine 1-Phosphate Receptor 3 (S1P3). [Related pubchem assays: 1429, 485 ]; format: functional
Fatty acid synthase [4] = target: T1, Fatty acid synthase (Homo sapiens, UniProt P49327); assay: inhibition of human FAS-TE enzyme activity – biochemical, endpoint fluorescence intensity, uHTS hits, dose response (AID 624327); format: functional;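 note: fluorescence from hydrolysis of an O-methyl fluorescein acyl ester substrate by the enzyme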
Fatty acid synthase [5] = target: T1, Fatty acid synthase; assay: inhibition of human FAS-TE enzyme activity – biochemical, kinetic fluorescence intensity, dose response (AID 624326); format: functional;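 note: rate of fluorescence rise from hydrolysis of a fluorogenic O-methyl fluorescein ester substrate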
[6] = tested on: Streptococcus sp. 'group A'; assay: Streptococcus pyogenes SK(-)GAS viability under kanamycin – luminescence, BacTiterGlo, confirmation, counter-screen for streptokinase expression inhibitor project, dose response (AID 1900); format: functional, organism-based
Streptokinase A = target: T2, Streptokinase A (Streptococcus pyogenes serotype M1, UniProt P10520); assay: viability-normalized secreted streptokinase activity reduction – plasminogen activation absorbance, OD405, dose response (AID 1914); format: functional, Streptococcus pyogenes M1 GAS;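 note: secreted streptokinase activity via plasminogen activation per viability signal from cell pellet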
T2 sequence (P10520 whole entry): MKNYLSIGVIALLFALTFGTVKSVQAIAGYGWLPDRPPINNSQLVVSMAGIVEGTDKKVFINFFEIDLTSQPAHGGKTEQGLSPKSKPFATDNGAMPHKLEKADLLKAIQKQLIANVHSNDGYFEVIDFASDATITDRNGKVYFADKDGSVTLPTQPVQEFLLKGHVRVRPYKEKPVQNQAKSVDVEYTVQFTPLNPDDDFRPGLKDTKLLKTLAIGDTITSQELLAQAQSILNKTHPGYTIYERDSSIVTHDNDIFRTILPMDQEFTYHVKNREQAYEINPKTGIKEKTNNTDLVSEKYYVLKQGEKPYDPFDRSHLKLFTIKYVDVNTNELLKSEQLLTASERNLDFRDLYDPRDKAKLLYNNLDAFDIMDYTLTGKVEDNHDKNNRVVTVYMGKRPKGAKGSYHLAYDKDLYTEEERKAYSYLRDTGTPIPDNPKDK

[7] = CCR5-tropic HIV-1 fusion blockers – cell-based, CCR5-tropic Env, dose response (AID 2279); format: functional
[8] = target: Induced myeloid leukemia cell differentiation protein Mcl-1 (Homo sapiens, UniProt Q07820); format: functional
Streptococcus = assay: GAS UMAA2166 growth inhibition – luminescence, BacTiterGlo, counter-screen for streptokinase expression inhibitor project, dose response (AID 1915); format: functional, organism-based;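 note: potency for reduction of bacterial viability or growth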
[9] = Trypanosoma cruzi growth suppression in host cells – NIH3T3 host cells, beta-gal luminescence, confirmation (AID 2044); format: functional, cell-based;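 note: intracellular parasites grown in NIH/3T3 mouse fibroblasts as host cells; luminescent beta-galactosidase reporter signal from transgenic T. cruzi replicating inside host cells; inhibitors lower the luminescence signal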
Mucolipin-3 = Mucolipin-3 (Homo sapiens, UniProt Q8TDD5); assay: Dose response cell-based high-throughput screening assay for agonists of the transient receptor potential channel ML3 (TRPML3). [Related pubchem assays: 1526, 1424, 1448 ]; format: functional
[10] = NIH3T3 cell viability loss – ATP luminescence, mouse fibroblasts, counter-screen, dose response (AID 2010); format: functional, cell-based;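 note: cells exposed to compound for about 90 hours before reading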
Ion channel NompC = Ion channel NompC (Danio rerio, UniProt Q7T1G6); assay: Fluorescence counterscreen assay for TRPML3 agonists: dose response cell-based high-throughput screening assay to identify agonists of the transient receptor potential channel N1 (TRPN1). [Related pubchem assays: 1526, 1424, 1448 ]; format: functional
[11] = antiviral protection against BTV-induced cell death – arbovirus, BSR cells, confirmation (AID 1250); format: functional;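 note: protection from viral cytopathic effect measured as cell viability by ATP luminescence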
[12] = target: Neuropeptide Y receptor type 1 (Homo sapiens, UniProt P25929); format: functional;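 note: HEK293 cells with a CNG channel challenged with NPY then isoproterenol; potency as antagonist that reverses NPY suppression of cAMP signal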
[13] = target: Neuropeptide Y receptor type 2 (Homo sapiens, UniProt P49146); format: functional, cell-based;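 note: HEK293 cells expressing the receptor and a CNG channel; stimulus was NPY near EC95 followed by isoproterenol to raise cAMP; antagonist potency measured as restoring cAMP signal that NPY suppresses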
[14] = target: Protein-tyrosine kinase 2-beta (Homo sapiens, UniProt Q14289);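 note: potency of inhibitors of PYK2 kinase phosphorylation of poly-GT substrate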
[15] = target: T3, Replicative DNA helicase DnaB (Mycobacterium tuberculosis, UniProt P9WMR3); assay: DnaB intein splicing inhibitors, dose response, biochemical, cell-free fluorescence (AID 449749); format: functional
T3 sequence (P9WMR3 whole entry): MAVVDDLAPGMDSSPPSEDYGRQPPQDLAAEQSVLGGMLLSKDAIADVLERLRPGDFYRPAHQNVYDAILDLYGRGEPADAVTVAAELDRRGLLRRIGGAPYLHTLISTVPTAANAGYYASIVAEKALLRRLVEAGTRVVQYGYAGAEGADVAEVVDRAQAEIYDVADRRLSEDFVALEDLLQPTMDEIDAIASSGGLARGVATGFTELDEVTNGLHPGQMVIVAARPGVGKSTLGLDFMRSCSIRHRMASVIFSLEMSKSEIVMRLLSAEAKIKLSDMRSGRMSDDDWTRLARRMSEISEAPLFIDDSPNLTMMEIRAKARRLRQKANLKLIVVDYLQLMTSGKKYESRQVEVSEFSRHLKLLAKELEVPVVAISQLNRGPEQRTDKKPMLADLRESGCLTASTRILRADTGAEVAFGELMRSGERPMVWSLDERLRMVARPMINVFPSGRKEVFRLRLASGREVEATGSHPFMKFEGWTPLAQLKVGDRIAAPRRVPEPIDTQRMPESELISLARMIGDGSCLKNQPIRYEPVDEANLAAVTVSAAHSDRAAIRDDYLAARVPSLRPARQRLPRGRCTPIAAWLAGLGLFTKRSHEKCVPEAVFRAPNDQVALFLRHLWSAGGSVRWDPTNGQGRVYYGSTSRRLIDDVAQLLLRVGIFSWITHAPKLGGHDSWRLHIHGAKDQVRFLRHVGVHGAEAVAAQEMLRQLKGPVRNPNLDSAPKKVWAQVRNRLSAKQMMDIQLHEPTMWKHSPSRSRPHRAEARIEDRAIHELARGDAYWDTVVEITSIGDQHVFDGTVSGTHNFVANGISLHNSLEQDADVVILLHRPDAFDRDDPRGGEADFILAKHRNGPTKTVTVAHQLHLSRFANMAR

[16] = target: T4, Apoptotic protease-activating factor 1 (Homo sapiens, UniProt O14727); format: functional
T4 sequence (O14727 whole entry): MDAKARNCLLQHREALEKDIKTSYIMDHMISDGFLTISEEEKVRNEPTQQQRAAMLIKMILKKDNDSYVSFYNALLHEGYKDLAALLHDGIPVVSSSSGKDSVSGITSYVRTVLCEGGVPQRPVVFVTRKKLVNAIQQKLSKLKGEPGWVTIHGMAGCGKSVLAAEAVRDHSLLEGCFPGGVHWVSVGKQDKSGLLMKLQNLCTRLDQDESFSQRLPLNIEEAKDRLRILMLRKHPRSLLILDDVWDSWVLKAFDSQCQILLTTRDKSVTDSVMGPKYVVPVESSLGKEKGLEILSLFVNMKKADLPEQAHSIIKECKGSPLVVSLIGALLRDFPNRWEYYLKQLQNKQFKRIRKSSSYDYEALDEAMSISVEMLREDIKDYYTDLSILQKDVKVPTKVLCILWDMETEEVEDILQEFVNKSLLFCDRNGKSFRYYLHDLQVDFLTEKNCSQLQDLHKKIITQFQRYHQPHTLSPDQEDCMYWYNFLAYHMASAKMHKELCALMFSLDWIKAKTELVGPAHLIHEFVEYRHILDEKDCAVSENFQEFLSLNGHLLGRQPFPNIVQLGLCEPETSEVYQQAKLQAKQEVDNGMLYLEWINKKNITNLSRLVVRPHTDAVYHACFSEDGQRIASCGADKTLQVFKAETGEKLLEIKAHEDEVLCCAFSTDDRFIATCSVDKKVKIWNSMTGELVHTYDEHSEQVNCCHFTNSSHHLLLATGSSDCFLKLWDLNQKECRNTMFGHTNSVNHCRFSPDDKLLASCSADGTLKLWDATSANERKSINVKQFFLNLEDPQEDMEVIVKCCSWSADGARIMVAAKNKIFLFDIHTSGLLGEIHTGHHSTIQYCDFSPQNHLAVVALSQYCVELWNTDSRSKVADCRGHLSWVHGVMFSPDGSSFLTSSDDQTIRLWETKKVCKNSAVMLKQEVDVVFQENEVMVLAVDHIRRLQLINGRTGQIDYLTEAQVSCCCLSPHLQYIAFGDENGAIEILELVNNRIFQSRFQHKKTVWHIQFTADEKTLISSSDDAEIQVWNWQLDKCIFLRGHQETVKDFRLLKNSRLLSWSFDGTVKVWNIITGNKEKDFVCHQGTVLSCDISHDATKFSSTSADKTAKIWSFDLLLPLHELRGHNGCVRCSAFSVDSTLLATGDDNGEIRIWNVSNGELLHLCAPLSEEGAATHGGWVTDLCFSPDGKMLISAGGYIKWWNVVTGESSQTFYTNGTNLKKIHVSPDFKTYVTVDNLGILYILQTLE

Protein RecA = target: T5, Protein RecA (Mycobacterium tuberculosis, UniProt P9WHJ3); assay: Fluorescence Cell-Free Homogeneous Dose Retest to Identify Inhibitors of RecA-Intein Splicing Activity. [Related pubchem assays (depositor defined):AID2097, AID2223, AID489010, AID492950]; format: functional
T5 sequence (P9WHJ3 whole entry): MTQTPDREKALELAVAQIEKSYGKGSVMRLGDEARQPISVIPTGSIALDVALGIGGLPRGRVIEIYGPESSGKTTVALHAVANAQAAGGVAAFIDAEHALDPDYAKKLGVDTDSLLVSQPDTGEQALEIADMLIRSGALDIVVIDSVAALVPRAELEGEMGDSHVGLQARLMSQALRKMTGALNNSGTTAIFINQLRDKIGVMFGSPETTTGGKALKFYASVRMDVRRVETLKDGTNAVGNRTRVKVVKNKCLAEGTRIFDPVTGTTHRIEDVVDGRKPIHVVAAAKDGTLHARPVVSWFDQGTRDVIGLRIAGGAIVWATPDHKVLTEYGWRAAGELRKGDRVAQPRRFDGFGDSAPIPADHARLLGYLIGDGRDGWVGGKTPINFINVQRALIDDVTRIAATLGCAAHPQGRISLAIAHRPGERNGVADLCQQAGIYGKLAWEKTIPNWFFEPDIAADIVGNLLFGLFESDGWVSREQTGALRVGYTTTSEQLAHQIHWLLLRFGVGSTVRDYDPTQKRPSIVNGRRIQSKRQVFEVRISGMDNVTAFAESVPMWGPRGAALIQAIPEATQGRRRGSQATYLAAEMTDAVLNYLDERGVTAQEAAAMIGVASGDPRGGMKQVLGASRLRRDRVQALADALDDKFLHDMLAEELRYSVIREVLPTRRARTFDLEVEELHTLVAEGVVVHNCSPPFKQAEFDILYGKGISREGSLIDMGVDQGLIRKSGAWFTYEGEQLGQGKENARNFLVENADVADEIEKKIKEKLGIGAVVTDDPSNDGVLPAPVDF

[17] = target: T6, Sentrin-specific protease 8 (Homo sapiens, UniProt Q96LD8); format: functional
T6 sequence (Q96LD8 whole entry): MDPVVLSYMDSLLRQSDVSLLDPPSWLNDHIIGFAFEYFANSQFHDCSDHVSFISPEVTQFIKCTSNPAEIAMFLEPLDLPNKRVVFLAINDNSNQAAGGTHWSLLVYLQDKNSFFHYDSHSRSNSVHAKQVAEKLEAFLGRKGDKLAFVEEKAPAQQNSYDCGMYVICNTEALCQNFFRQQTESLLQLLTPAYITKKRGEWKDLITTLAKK

[18] = target: T6, Sentrin-specific protease 8; format: functional; remark: listed apart in the source
Bcl-2-like protein 10 = Bcl-2-like protein 10 (Homo sapiens, UniProt Q9HD36); assay: Concentration-response of Bcl-B inhibitors by biochemical FP with TR3 (AID 1243); format: functional
[19] = target: Epstein-Barr nuclear antigen 1 (Epstein-Barr virus (strain B95-8) (HHV-4) (Human herpesvirus 4), UniProt P03211); assay: inhibition of EBV nuclear antigen 1 DNA binding – biochemical, fluorescence polarization, 1536-well, dose response (AID 2381); set-up: species or system human gammaherpesvirus 4;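 note: fluorescence polarization of a Cy5 DNA probe bound by EBNA-1 protein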
[20] = target: Lytic switch protein BZLF1 (Epstein-Barr virus (strain B95-8) (HHV-4) (Human herpesvirus 4), UniProt P03206); assay: inhibition of BZLF1 ZTA DNA binding – biochemical, fluorescence polarization, Epstein-Barr virus, 1536-well, counter-screen for EBNA-1 inhibitor project, dose response (AID 2377); set-up: species or system human gammaherpesvirus 4;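 note: fluorescence polarization of Cy5-labelled ZRE DNA probe bound by purified Zta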

T1 sequence (P49327 whole entry): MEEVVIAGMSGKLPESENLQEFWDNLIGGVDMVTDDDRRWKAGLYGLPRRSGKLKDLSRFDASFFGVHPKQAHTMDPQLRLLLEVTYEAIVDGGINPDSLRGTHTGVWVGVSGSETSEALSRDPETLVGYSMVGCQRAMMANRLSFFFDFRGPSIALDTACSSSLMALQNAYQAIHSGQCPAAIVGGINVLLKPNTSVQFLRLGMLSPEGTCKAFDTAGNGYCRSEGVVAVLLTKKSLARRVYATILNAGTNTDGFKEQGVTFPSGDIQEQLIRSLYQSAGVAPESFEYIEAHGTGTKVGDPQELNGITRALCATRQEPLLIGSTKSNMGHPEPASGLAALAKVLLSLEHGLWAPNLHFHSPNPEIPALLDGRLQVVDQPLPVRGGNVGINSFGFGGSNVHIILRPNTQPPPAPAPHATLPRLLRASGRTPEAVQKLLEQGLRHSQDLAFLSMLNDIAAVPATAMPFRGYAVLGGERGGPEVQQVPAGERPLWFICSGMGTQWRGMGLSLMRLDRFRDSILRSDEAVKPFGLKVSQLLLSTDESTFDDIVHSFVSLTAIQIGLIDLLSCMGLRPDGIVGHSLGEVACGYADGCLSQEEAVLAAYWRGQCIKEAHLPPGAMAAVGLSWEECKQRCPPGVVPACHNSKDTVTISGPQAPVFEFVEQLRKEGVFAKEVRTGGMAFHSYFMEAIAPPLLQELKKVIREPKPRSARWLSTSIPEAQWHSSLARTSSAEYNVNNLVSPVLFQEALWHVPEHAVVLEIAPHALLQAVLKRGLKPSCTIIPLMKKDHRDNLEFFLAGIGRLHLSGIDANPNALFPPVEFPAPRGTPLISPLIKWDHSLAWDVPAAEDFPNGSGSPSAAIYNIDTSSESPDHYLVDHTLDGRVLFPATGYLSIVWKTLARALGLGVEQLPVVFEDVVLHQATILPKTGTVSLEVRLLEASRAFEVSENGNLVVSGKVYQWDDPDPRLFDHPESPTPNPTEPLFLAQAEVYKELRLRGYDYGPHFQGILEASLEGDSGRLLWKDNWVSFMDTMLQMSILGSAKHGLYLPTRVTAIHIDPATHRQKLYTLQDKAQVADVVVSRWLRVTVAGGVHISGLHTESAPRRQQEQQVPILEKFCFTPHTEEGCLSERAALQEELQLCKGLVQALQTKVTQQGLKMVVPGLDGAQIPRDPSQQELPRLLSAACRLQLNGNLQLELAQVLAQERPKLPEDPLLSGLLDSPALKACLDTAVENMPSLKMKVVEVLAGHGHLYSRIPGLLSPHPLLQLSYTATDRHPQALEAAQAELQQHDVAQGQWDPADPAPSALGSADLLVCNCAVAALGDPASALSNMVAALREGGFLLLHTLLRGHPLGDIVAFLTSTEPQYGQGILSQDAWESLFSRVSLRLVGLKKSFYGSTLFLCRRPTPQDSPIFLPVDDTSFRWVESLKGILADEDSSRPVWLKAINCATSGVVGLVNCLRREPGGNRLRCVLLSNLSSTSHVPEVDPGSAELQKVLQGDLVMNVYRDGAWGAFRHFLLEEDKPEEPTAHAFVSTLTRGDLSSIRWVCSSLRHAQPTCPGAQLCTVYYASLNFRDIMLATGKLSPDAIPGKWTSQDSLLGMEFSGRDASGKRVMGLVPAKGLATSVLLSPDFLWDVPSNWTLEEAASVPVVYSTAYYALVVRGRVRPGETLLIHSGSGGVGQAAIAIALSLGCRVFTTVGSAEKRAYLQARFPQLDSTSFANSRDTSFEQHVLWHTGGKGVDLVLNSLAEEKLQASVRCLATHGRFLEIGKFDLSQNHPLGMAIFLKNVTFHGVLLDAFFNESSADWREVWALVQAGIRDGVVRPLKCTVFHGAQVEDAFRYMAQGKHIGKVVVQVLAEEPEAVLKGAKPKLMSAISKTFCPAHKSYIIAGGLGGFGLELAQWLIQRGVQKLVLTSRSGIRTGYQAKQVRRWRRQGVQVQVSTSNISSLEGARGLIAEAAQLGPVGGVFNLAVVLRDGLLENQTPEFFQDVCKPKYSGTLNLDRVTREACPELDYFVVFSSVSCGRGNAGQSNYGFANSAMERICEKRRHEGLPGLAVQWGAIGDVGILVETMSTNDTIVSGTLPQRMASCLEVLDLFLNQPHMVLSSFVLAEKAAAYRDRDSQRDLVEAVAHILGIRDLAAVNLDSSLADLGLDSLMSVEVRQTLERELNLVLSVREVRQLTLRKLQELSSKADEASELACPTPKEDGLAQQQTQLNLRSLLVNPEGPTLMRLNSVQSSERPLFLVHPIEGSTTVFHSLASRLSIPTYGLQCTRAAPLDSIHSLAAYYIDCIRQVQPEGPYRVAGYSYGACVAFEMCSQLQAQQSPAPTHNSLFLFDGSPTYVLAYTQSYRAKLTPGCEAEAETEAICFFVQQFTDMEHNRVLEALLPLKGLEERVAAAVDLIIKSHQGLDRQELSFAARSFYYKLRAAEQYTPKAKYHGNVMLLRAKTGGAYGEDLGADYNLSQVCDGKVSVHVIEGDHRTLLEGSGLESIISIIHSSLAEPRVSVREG
Sequence of Protein-tyrosine kinase 2-beta (Q14289 whole entry): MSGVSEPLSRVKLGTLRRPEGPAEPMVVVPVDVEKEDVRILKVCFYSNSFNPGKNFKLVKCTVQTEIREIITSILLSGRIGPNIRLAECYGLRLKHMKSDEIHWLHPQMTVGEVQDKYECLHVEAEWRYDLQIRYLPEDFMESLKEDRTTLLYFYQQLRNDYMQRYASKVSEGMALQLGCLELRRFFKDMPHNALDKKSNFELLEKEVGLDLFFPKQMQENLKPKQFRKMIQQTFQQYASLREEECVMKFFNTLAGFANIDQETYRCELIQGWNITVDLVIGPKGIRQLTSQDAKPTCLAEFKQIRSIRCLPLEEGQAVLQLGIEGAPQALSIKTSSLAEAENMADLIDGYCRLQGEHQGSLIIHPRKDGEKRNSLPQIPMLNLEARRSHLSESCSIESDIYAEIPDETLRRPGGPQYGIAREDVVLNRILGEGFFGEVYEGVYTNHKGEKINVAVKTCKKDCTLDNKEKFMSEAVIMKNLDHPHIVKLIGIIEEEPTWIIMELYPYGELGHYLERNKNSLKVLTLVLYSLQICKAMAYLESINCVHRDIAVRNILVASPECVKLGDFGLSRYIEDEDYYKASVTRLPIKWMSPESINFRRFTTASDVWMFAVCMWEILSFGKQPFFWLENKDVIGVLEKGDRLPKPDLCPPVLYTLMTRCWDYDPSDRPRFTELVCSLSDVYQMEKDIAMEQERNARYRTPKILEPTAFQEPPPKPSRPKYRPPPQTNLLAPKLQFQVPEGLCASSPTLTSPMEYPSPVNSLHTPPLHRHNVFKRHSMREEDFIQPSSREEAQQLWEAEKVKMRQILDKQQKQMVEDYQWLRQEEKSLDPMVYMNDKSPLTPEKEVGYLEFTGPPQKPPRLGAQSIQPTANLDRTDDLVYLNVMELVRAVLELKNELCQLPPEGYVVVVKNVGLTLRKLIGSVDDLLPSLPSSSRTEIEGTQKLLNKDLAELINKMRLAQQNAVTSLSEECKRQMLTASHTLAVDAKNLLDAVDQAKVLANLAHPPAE
Sequence of Epstein-Barr nuclear antigen 1 (P03211 whole entry): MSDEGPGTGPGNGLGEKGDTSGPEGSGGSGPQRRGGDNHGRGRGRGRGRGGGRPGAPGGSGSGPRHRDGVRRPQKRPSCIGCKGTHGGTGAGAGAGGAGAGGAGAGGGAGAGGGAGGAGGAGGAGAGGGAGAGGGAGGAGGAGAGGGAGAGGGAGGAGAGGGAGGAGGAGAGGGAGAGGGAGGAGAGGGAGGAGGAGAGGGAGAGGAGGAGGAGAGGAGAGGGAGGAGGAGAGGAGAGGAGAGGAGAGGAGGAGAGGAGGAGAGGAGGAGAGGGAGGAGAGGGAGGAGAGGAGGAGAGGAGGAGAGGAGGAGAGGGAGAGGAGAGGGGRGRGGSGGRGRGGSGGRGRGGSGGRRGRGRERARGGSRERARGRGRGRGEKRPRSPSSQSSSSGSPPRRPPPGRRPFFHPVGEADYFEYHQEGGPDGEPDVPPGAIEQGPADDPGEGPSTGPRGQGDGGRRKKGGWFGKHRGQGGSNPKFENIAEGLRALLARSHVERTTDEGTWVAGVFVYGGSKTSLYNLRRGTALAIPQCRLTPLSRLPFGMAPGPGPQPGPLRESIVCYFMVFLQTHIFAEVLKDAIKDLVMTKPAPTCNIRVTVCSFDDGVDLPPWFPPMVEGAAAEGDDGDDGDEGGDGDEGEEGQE
Sequence of Neuropeptide Y receptor type 1 (P25929 whole entry): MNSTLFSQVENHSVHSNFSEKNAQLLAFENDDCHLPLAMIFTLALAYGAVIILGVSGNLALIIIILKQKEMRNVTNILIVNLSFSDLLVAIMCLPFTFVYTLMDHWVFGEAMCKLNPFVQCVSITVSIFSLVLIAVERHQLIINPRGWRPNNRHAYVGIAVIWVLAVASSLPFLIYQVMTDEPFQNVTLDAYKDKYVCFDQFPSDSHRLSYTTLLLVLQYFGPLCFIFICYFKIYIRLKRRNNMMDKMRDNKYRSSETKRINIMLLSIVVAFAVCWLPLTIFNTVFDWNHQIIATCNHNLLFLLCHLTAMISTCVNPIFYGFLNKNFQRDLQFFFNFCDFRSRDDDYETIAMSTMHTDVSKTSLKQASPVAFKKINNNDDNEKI
Sequence of Sphingosine 1-phosphate receptor 3 (Q99500 whole entry): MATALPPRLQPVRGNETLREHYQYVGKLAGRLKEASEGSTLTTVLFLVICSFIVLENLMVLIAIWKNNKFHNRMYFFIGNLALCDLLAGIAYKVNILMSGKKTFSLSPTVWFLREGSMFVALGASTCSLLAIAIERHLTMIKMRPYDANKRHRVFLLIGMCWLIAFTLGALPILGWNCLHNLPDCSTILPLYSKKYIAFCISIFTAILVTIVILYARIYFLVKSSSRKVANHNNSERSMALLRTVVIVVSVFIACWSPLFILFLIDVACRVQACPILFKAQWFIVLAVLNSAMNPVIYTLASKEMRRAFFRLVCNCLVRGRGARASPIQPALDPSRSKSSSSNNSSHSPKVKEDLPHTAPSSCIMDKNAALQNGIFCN

CNC(=O)c1ccc(CN(C)CC(=O)c2cc(C)n(Cc3ccccc3)c2C)cc1
EC50 [1]: > 30 µM (not active)

Cc1ccc(NC(=O)C2(c3ccc([N+](=O)[O-])cc3)CCCC2)cc1
IC50 [2]: 9.48 µM (active) | IC50 [3]: 6.92 µM (active) | IC50 (Fatty acid synthase [4]): 14.6 µM (active) | IC50 (Fatty acid synthase [5]): 8.73 µM (active)

CC(C)(C)c1cc(-c2csc(Nc3ccccc3)[n+]2Cc2ccc(C(=O)O)cc2)cc(C(C)(C)C)c1O
EC50 [6]: 1.64 µM (active) | EC50 (Streptokinase A): > 150 µM (not active) | IC50 [7]: 20.7 µM (active) | IC50 [8]: 2.01 µM (active) | EC50 (Streptococcus): 2.87 µM (active)

CCN(CC)c1ccc(NC(=O)COc2ccc(N(C)S(=O)(=O)c3cccs3)cc2)cc1
EC50 [9]: 2.28 µM (active) | EC50 (Mucolipin-3): > 29.9 µM (not active) | EC50 [10]: > 30 µM (not active) | EC50 (Ion channel NompC): > 29.9 µM (not active)

COc1ccc(/C=C/C(=O)Nc2cc(C(F)(F)F)ccc2Cl)cc1OC
IC50 [11]: 27.9 µM (active)

N#Cc1nc(COc2ccc(Cl)cc2)oc1N1CCCCCC1
IC50 [12]: 6.66 µM (active) | IC50 [13]: 16.1 µM (not active)

O=C1Cc2ccccc2C(=O)N1Cc1ccccc1
IC50 [14]: > 69.5 µM (not active) | AC50 [15]: > 380 µM (inconclusive) | IC50 [16]: 3.89 µM (active) | EC50 (Protein RecA): 2.04 µM (active) | IC50 [17]: > 100 µM (inactive) | IC50 [18]: 1.06 µM (active)

O=C(O)c1ccc2c(c1)C1C=CCC1C(c1cccc([N+](=O)[O-])c1)N2 (stereo unspecified)
EC50 (Bcl-2-like protein 10): 1.75 µM (active)

COC(=O)c1cccc(S(=O)(=O)N2CCC(NC(=O)Nc3cccc(F)c3)CC2)c1
IC50 [19]: 6.09 µM (active) | IC50 [20]: > 111 µM (not active)
